Experimental findings from patent publication US20140094484A1, “SUSTAINED DELIVERY FORMULATIONS OF RAPAMYCIN COMPOUNDS” (QLT Inc., priority 2012, published 2014) are described below.

Assay [1] concerns choroidal neovascularization (CNV). The experiment in a line: Laser-induced CNV rat model, histological evaluation (CNV area, CD31 positive cell count). The format is in vivo, Long Evans rats. The procedure: (§1) Thermal laser infrared light (diode laser 810 nm) at 200 mW for 0.075 seconds was delivered to the fundus of Long Evans rats using a slit lamp and a slit lamp adaptor. A total of 6 lesions with 75 μm diameter were placed in a circular pattern surrounding the optic disc on the posterior pole.
Intravitreal injection was performed immediately after laser photocoagulation. Briefly, three days prior to the injection, 0.3% Ciloxan ointment was applied to the eye once daily. At the time of injection, the eye pocket was irrigated and the conjunctiva swabbed with 1.0% Betadine solution. […] The injection began when the bevel of the needle faced down and reached the vitreous about 1-2 mm in depth with the visual aid of a dissecting microscope. After injection, topical 0.3% Ciloxan ointment was applied to the eye once daily for 2 days.
Eyes were enucleated and chorioretinal tissues that contained the CNV lesions prepared and fixed for about 18 hours in formic acid alcohol, and then replaced with 70% alcohol until the specimen was processed to wax by a standard method. Slides were stained with mouse anti rat CD31 (Chemicon, UK) by a standard immunohistochemistry protocol. This briefly consisted of removal of endogenous peroxidase enzymes with methanol and hydrogen peroxide, primary antibody as above, and the secondary donkey antibody anti mouse conjugated to biotin. Streptavidin ABC and Vector VIP substrate (Vector labs, Burlingame Calif.) were further added. Haematoxylin was used as a counterstain. Representative images before and after the center of each CNV lesion were taken using the 20× objective of an Olympus BX61 microscope fitted with a Spot RT colour camera (Diagnostic instruments, MI USA). Each image was applied to the standard image analysis macro in the software Image pro to identify the mean of lesion area for each CNV and the mean of CD31 positive cell counts (i.e. endothelial cells) within the CNV lesion area. All measurements were generated by two independent readers masked to the treatments. The data was analyzed in Excel and GraphPad Prism. The 80% correlation found between readers was deemed acceptable.

For assay [2] the test system is unchanged. Kind of assay: Laser-induced CNV rat model, fluorescein angiography evaluation. The settings on record: for effect on CNV development: intravitreal injection immediately after laser photocoagulation. The format is in vivo, Long Evans rats. The procedure:
as §1
Intravitreal injection was performed immediately after laser photocoagulation. Briefly, three days prior to the injection, 0.3% Ciloxan ointment was applied to the eye once daily. At the time of injection, the eye pocket was irrigated and the conjunctiva swabbed with 1.0% Betadine solution. A 30-gauge needle connected to a […], Hamilton syringe that contained 5 μL carboxymethylcellulose (CMC)-based Rapamycin suspension (0.5, 5, 10 or 40 mg/mL) or CMC vehicle alone was inserted 1 mm posterior to the corneoscleral limbus. The injection began when the bevel of the needle faced down and reached the vitreous about 1-2 mm in depth with the visual aid of a dissecting microscope. After injection, topical 0.3% Ciloxan ointment was applied to the eye once daily for 2 days.
FA was performed on the 14th day after intravitreal injection of Rapamycin. Briefly, a 25-gauge butterfly catheter was placed in the tail vein on an anesthetized animal and a Heparin-Lock solution (0.50 mL of 10,000 IU/mL Heparin Sodium with 0.95 mL 0.9% Saline) was used to fill the catheter line to maintain intravenous access. A dose of 10 mg/kg of Diofluor 10% (Fluorescein Sodium 10%) was delivered through the tail vein, followed by a flush of sterile saline to ensure full delivery of Diofluor 10%. An infusion pump (Becton-Dickinson) connected to a 60 cc syringe was used to infuse the Diofluor 10% at a constant rate of 6 mL/min (8.4-13.2 pounds per square inches) to allow for consistency in the synchronization of the fluorescein bolus injection and the angiogram acquisition. Photographs were taken with a fluorescence fundus camera at 1-10, 30, 60, 90, 180, and 300 sec after Diofluor 10% administration. The leakiness of CNV was assessed by two independent readers masked to the treatment.

Assay [3] relates to Human umbilical endothelial cells. Kind of assay: VEGF-activated endothelial cell proliferation, [3H]-thymidine incorporation. The format is cell-based. Conditions: [3H]-thymidine incorporation after 48 hours. The procedure: (§2) Targeted tissue concentrations were estimated from in vitro experiments assessing the inhibitory effects of rapamycin on endothelial cell proliferation and cytokine release from immune cells. Human umbilical endothelial cells were activated with Vascular Endothelial Growth Factor (VEGF) and incubated with various concentrations of rapamycin. Cell proliferation was evaluated by quantifying [3}H-thymidine incorporation after 48 hours. […] The IC50 for the release of TNFalpha from Lipopolysaccharide and IFNgamma treated THP-1 cells (monocytic cell line) was ˜1 nM and the IC50 for the release of IFNgamma from human peripheral blood T cells stimulated with phytohemagglutanin was ˜2 nM.

Assay [4] relates to human peripheral blood T cells. The experiment in a line: IFNgamma release from T cells stimulated with phytohemagglutanin. It is filed as cell-based. Conditions: T-cell. The procedure: as §2
Assay [5] relates to THP-1 cells (monocytic cell line). Kind of assay: TNFalpha release from Lipopolysaccharide and IFNgamma treated THP-1 cells. The format is cell-based. The settings on record: Homo sapiens. The procedure: as §2
The next assay relates to mTOR. The experiment in a line: Pharmacodynamic evaluation: Ser235/236 phosphorylation of S6 ribosomal protein in chorioretinal tissues (western blot). The format is in vivo, Long Evans rats. The procedure:
Upon euthanasia of the animal, the eyes were cut along the equator, separating the anterior and posterior segments. The vitreous was removed and the remaining back of eye (with intact retina, choroid and sclera) was placed in a labeled Nalgene Cryotube, immediately immersed in liquid nitrogen, and stored at −80° C. until ready to use. Upon lysis, tubes containing tissue were brought to room temperature to thaw. Tissues were lysed in 400 μL of lysis buffer (Cell Signaling CAT #: 9803) with protease inhibitor cocktail (Calbiochem CAT #: 539131) and beads in Matrix D Tubes (Q-biogene, CAT #: 6913-100) in the Fast Prep Instrument. Protein concentration of each sample was determined using the Pierce BCA Protein Determination Kit (Pierce, CAT #: 23225) and BSA as a standard. Samples were analyzed by SDS-PAGE, followed by western blotting. Primary antibodies included antibodies against phosphorylated S6 ribosomal protein, S6 ribosomal protein, and beta-actin antibody. Secondary antibodies included goat anti-Rabbit HRP linked antibodies, or Goat anti-Mouse HRP linked antibodies. Bound antibodies were detected using ECL or ECL plus Western Blotting Reagents. Densitometric evaluation was performed on blots scanned by Bio-Rad Multi-Analyst Software, and analyzed in MS Excel and GraphPad Prism.
Rapamycin inhibits mTOR activity, which then down-regulates Ser235/236 phosphorylation of the downstream target of mTOR, the S6 ribosomal protein. In order to evaluate the pharmacodynamic response of intravitreally administered rapamycin in the eye, the serine phosphorylation of S6 protein extracted from chorioretinal tissues was analyzed by western blot, and standardized by the total amount of S6 protein. […] The inhibitory effect of rapamycin on S6 phosphorylation occurred within the first 24 h and lasted for 7 days post-dosing, the longest follow-up timepoint.
(A western blot detects proteins with antibodies after separation by electrophoresis.)

Entries after “also recorded” stand apart in the source; their conditions may differ. Where only a bound is given, the exact number is not on record here.

`CC1(C)O[C@@H]2C[C@H]3[C@@H]4CCC5=CC(=O)C=C[C@]5(C)[C@@]4(F)[C@@H](O)C[C@]3(C)[C@]2(C(=O)CO)O1` [triamcinolone acetonide (TA), triamcinolone acetonide]: in assay [1] (TA intravitreal 200 μg), the “inhibition of CNV area” value is “approximately 50%” and the “inhibition of endothelial cell count” value is given as roughly 60%. Further, the “incidence of leaky CNV at the 14-day follow-up” value in assay [2] (intravitreal dose of 200 μg, rat) is 10%.
For the compound `CO[C@H]1C[C@@H]2CC[C@@H](C)[C@@](O)(O2)C(=O)C(=O)N2CCCC[C@H]2C(=O)O[C@H]([C@H](C)C[C@@H]2CC[C@@H](O)[C@H](OC)C2)CC(=O)[C@H](C)/C=C(\C)[C@@H](O)[C@@H](OC)C(=O)[C@H](C)C[C@H](C)/C=C/C=C/C=C/1C` [rapamycin, Rapamycin], the IC50 – broadly, the concentration needed to halve the response being measured – in assay [3] is 69 nM; in assay [4], roughly 2 nM; in assay [5], roughly 1 nM. Moreover, the figures for the “reduction in CNV area compared to the vehicle group” value in assay [1] (0.5 μg intravitreal), in assay [1] (5 μg intravitreal) and in assay [1] (50 μg intravitreal) were 15%, 55% and 50%, respectively. Besides, the “overall reduction in the number of endothelial cells within the CNV area compared to the vehicle group” value in assay [1] (50 μg, 5 μg and 0.5 μg intravitreal) is on record as 50-60%. Besides, in assay [1] (intravitreal 50, 5, 0.5 μg), the “CNV area and number of endothelial cells in the CNV lesions after treatment” value is on record as “reduced after rapamycin treatment in a dose-dependent manner”. Also, in assay [2] (5 μg intravitreally injected), the “response in the rat CNV model” value was “nearly a complete response”. In addition, the “effect on CNV development” value is given as “dose dependent inhibition of CNV development” in assay [2] (rat) and “potent inhibitor of CNV; also recorded: inhibited the development of CNV” in assay [2] (rat, listed as Rapamycin). Besides, the “incidence of developing leaky CNV 2 weeks after laser photocoagulation” value amounted to 65% in assay [2] (single intravitreal injection of 0.5 μg rapamycin in CMC, rat); 5% in assay [2] (single intravitreal injection of 5 μg rapamycin in CMC, rat); 2% in assay [2] (single intravitreal injection of 50 μg rapamycin in CMC, rat). The “level of phosphorylated Ser235/236 on S6 ribosomal protein, standardized by total S6 protein” value in the assay on mTOR (intravitreal, chorioretinal tissues, day 1, 3, 7 post-dosing, vs untreated or vehicle injected eyes) is “significantly reduced”. For the same compound, the “time within which the inhibitory effect on S6 phosphorylation occurred” value with mTOR (intravitreal, rat) was no more than 24 h. Further, the “time the inhibitory effect on S6 phosphorylation lasted post-dosing” value in the assay with mTOR (intravitreal, rat, longest follow-up timepoint) is 7 days. Also, the “activation of its target mTOR” value with mTOR (rat model of laser-induced CNV) is on record as “suppressed the activation of its target mTOR at all tested time points”.
